Data on 10 compounds can be found in patent US4554281A, “2-Amino-3-acylamino-6-benzylamino-pyridine-derivative having antiepileptic action” (priority 1982, dated 1985).

Data set [1] in a line: MES - Maximum Electroshock Attack Test (anticonvulsive action, intraperitoneal). It counts as in vivo, mouse (male Carworth Farms Mice). The following applies: in vivo, ip; mouse, intraperitoneal; number below the slanting line; read-out: quotient TD 50/ED 50 (MES), therapeutic breadth. The protocol:
(§1) All experiments were carried out with male Carworth Farms Mice.
(§2) The materials were tested in three dosages (30, 100, 300 mg/kg) (600 mg/kg was co-tested if a sufficient amount of the material was present). The materials in each case were dissolved in 30% aqueous polyethylene glycol solution.
(§3) A maximum electroshock attack was obtained through alternating current (60 Hz, 50 m A intensity) with which the mouse was irritated for 0.2 seconds via corneal electrodes. A 5-7 times weaker intensity of irritation was sufficient to produce a minimum electroshock-attack. One drop of 0.9% aqueous NaCl solution was given before applying the electrodes into the eyes in order to guard against killing the animals. The test substances were dispersed intraperitoneally before the irritation. […] the tonic stretching components of the attack (rear extremities) was regarded as protective action. The results were represented as follows:
(§4) number of animals having protective action/total number of test animals

Data set [2] concerns mouse. The description is as above. It counts as in vivo, mouse (male Carworth Farms Mice). To be noted: ip, read-out: Maximum Electro-Shock (MES) ED 50. How it is done:
as §1, §2, §3, §4

Data set [3] in a line: s.c. Met - Subcutaneous Pentetrazole (Metrazole) Test (anticonvulsive action, intraperitoneal). It counts as in vivo, mouse (male Carworth Farms Mice). To be noted: in vivo, ip; mouse, intraperitoneal; number below the slanting line; read-out: quotient TD 50/ED 50 (MET), therapeutic breadth. The protocol: as §1, §2
(§5) The absence of a clearly noticeable attack, (single occurrence of a […] spasm lasting 5 seconds) based on the previous intraperitoneal application of the test substances evaluated as protective action (the test substances were applied intraperitoneally before the application of pentetrazole). The results were represented as follows: number of animals having protective action/total number of test animals

Data set [4] concerns mouse. The description is as above. The class given is in vivo, mouse (male Carworth Farms Mice). To be noted: ip, read-out: Metrazole-Test (MET) ED 50. How it is done:
as §1, §2, §5

Data set [5] is described as follows: TD 50 - Neurotoxicity, rotating rod. More on the design: species or system mouse (male Carworth Farms Mice). The following applies: in vivo, ip, mouse, intraperitoneal. The protocol:
TD 50: is the ED 50 for the behavior of the mouse on the experimental
model of the rotating rod in mg/kg with intraperitoneal application. The
TD 50 is a measure for the undesired neurotoxic side effect.
as §1, §2
The test on the rotating rod was referred to for the evaluation of the neurotoxicity. The animals were placed on a rotating (6 rotations per minute) plastic rod having a diameter of 2.54 cm. […] An animal was characterized as neurologically toxic if it fell from the rotating rod within one minute.
number of animals which fell/total number of test animals

Data set [6] in a line: Oral acute toxicity (LD 50) according to Miller & Tainter. Set-up: species or system white mouse. The following applies: in vivo, mouse, per os, observation time 24 hours. How it is done: Examples for the toxicity on the mouse per se (expressed as LD 50 in mg/kg are as follows: […]
The determination of the oral toxicity on the white mouse was carried out in the international procedure according to Miller & Tainter (Proc. Soc., Exper. Biol. a Med. Vol. 57, page 261 et. seq. (1944)) with an observation time of 24 hours. The toxicity was stated as LD 50 in mg/kg.

As to `CCOC(=O)Nc1ccc(NCc2c(C)cc(C)cc2C)nc1N.Cl` [D 10 328, 2-amino-3-carbethoxyamino-6-(2,4,6-trimethyl-benzylamino)pyridine-hydrochloride], the results for the selectivity ratio in data set [1] and in data set [3] were 0.55 and 1.08, respectively. The ED50 in data set [2] (Mus musculus) stood at 1.97 mg/kg; in data set [4] (Mus musculus), 1.01 mg/kg. This compound also returned a TD50 in data set [5] of 1.09 mg/kg. The same compound had an LD50 at 24 h in data set [6] of 127 mg/kg.

In the case of `CCOC(=O)Nc1ccc(NCc2ccc(C(C)=O)cc2)nc1N` [D 10 558, 2-amino-3-carbethoxyamino-6-(4-methylcarbonyl-benzylamino)-pyridine], the selectivity ratio in data set [1] is 1.37; in data set [3], 4. The ED50 in data set [2] (Mus musculus) stood at 53.8 mg/kg; in data set [4] (Mus musculus), 18.4 mg/kg. The same compound came in with a TD50 in data set [5] of 73.9 mg/kg.

Turning to `CCOC(=O)Nc1ccc(NCc2cccc(F)c2)nc1N.Cl` [D 10 981, 2-amino-3-carbethoxyamino-6-(3-fluorobenzylamino)-pyridine-hydrochloride], the selectivity ratio in data set [1] was determined as 1.9; in data set [3], 3.61. The ED50 came out at 17.2 mg/kg in data set [2] (Mus musculus) and 9.07 mg/kg in data set [4] (Mus musculus). Further, the TD50 in data set [5] came to 32.7 mg/kg. In addition, the LD50 at 24 h in data set [6] was 2060 mg/kg.

As to `CCOC(=O)Nc1ccc(NCc2ccc(C(F)(F)F)cc2)nc1N.Cl` [D 11 208, 2-amino-3-carbethoxyamino-6-(4-trifluoromethyl-benzylamino)-pyridine-hydrochloride], the results for the selectivity ratio in data set [1] and in data set [3] were 2.73 and 6.81, respectively. For the same compound, the ED50 in data set [2] (Mus musculus) stood at 27.9 mg/kg; in data set [4] (Mus musculus), 11.2 mg/kg. For the same compound, in data set [5], the TD50 came to 76.3 mg/kg.

As for `CC(=O)Nc1ccc(NCc2ccc(F)cc2)nc1N.Cl` [D 13 223, 2-amino-3-acetamino-6-(4-fluoro-benzylamino)-pyridine-hydrochloride], the selectivity ratio was found to be 2.38 in data set [1] and 2.14 in data set [3]. Moreover, the values for the ED50 in data set [2] (Mus musculus) and in data set [4] (Mus musculus) were 84.3 mg/kg and 93.8 mg/kg, respectively. The TD50 in data set [5] turned out to be 201 mg/kg.

In the case of `CCOC(=O)Nc1ccc(NCc2ccccc2)nc1N.Cl` [D 7175, 2-amino-3-carbethoxyamino-6-benzylamino-pyridine-hydrochloride], the selectivity ratio in data set [1] came out at 2.3; in data set [3], 4.8. Also, the ED50 in data set [2] (Mus musculus) was 19.7 mg/kg; in data set [4] (Mus musculus), 9.46 mg/kg. Besides, the TD50 in data set [5] came to 45.6 mg/kg. Further, in data set [6], the LD50 at 24 h amounted to 402 mg/kg.

On to `CCOC(=O)Nc1ccc(NCc2ccc(Cl)cc2)nc1N.Cl` [D 9389, 2-amino-3-carbethoxyamino-6-(4-chlorobenzylamino)-pyridine-hydrochloride], for which the selectivity ratio in data set [1] came out at 1.64; in data set [3], 2.39. The ED50 in data set [2] (Mus musculus) came to 14.6 mg/kg; in data set [4] (Mus musculus) it was 10 mg/kg. Also, the TD50 in data set [5] was determined as 23.9 mg/kg. The LD50 at 24 h in data set [6] fell in the range of 1250 to 1500 mg/kg.

As for `CCOC(=O)Nc1ccc(NCc2ccc(NC(C)=O)cc2)nc1N.Cl` [D 9663, 2-amino-3-carbethoxyamino-6-(4-methylcarbonylamino-benzylamino)-pyridine-hydrochloride], the values for the selectivity ratio in data set [1] and in data set [3] were 1.15 and 2.49, respectively. In addition, the ED50 in data set [2] (Mus musculus) worked out at 124 mg/kg; in data set [4] (Mus musculus), 57.2 mg/kg. In addition, in data set [5], the TD50 is 142 mg/kg.

On to `CCOC(=O)Nc1ccc(NCc2ccc(S(N)(=O)=O)cc2)nc1N` [D 9805, 2-amino-3-carbethoxyamino-6-(4-aminosulfonyl-benzylamino)-pyridine], for which the results for the selectivity ratio in data set [1] and in data set [3] were 4.9 and 0.96, respectively. In addition, the ED50 in data set [2] (Mus musculus) was 108 mg/kg; in data set [4] (Mus musculus) it was 550 mg/kg. This compound also had a TD50 in data set [5] of 530 mg/kg.

In the case of `CCOC(=O)Nc1ccc(NCc2ccc(F)cc2)nc1N.Cl` [D 9998, 2-amino-3-carbethoxyamino-6-(4-fluorobenzylamino)-pyridine-hydrochloride], the figures for the selectivity ratio in data set [1] and in data set [3] were 1.67 and 1.86, respectively. The ED50 is 22.5 mg/kg in data set [2] (mouse, intraperitoneal) and 20.3 mg/kg in data set [4] (mouse, intraperitoneal, s.c. pentetrazole 85 mg/kg). The compound also had a TD50 in data set [5] of 37.7 mg/kg. The compound further registered an LD50 at 24 h in data set [6] of 617 mg/kg.
